Measured values published in ChEMBL document CHEMBL3046949, “New molecular scaffolds for the design of Alzheimers acetylcholinesterase inhibitors identified using ligand- and receptor-based virtual screening” (Med Chem Res, 2013).

molecular target: Acetylcholinesterase (Homo sapiens, UniProt P22303)
Sequence (P22303 whole entry): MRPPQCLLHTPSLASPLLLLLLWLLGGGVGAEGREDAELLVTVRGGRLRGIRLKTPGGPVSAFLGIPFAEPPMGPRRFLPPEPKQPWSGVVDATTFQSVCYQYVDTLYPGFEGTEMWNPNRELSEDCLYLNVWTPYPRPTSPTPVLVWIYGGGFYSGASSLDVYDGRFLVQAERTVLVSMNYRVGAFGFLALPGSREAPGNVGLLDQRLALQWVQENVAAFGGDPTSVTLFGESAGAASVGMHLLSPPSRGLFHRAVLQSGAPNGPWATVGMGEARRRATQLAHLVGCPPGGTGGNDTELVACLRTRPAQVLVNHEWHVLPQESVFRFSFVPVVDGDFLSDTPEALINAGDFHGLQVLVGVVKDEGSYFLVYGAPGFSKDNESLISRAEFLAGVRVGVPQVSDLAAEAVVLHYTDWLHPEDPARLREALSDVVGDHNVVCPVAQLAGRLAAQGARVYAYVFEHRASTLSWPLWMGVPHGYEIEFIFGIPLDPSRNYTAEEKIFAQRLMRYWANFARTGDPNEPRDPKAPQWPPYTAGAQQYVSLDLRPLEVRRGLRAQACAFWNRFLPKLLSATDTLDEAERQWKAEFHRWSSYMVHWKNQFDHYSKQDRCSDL
Description: Binding affinity to acetylcholinesterase (unknown origin)

Structure (SMILES) | Ki [nM]
COc1ccc(C(=O)NC2CCN(Cc3c(F)cccc3Cl)CC2)cc1OC | 54.8
O=C(NC1CCN(Cc2ccccc2)CC1)c1ccc2c(c1)OCCCO2 | 95.3
COc1cc2c(cc1OC)C(=O)C(Oc1ccc(C(C)N(C)C)cc1)C2 (stereo not drawn) | 543
COc1cc2c(cc1OC)C(=O)C(Oc1ccc(CN3CCOCC3)cc1)C2 (stereo not drawn) | 514
COc1cc2c(cc1OC)C(=O)C(Oc1ccc(CN3CCCCC3)cc1)C2 (stereo not drawn) | 403
COc1cc2c(cc1OC)C(=O)C(Oc1ccc(C(C)N3CCCCC3)cc1)C2 (stereo not drawn) | 106
CCN(CC)Cc1ccc(OC2Cc3cc(OC)c(OC)cc3C2=O)cc1 (stereo not drawn) | 1340
COc1cc2c(cc1OC)C(=O)C(Oc1ccc(C(C)N3CCCC3)cc1)C2 (stereo not drawn) | 403
COc1cc2c(cc1OC)C(=O)C(Oc1ccc(CN3CCCC3)cc1)C2 (stereo not drawn) | 257
CCN(CC)C(C)c1cccc(OC2Cc3cc(OC)c(OC)cc3C2=O)c1 (stereo not drawn) | 865
CCN(CC)Cc1cccc(OC2Cc3cc(OC)c(OC)cc3C2=O)c1 (stereo not drawn) | 1590
CCN(CC)C(C)c1ccc(OC2Cc3cc(OC)c(OC)cc3C2=O)cc1 (stereo not drawn) | 1330
COc1cc2c(cc1OC)C(=O)C(Oc1cccc(C(C)N3CCN(C)CC3)c1)C2 (stereo not drawn) | 77.7
COc1cc2c(cc1OC)C(=O)C(Oc1cccc(CN3CCCCC3)c1)C2 (stereo not drawn) | 266
COc1cc2c(cc1OC)C(=O)C(Oc1cccc(CN(C)C)c1)C2 (stereo not drawn) | 1000
COc1cc2c(cc1OC)C(=O)C(Oc1cccc(CN3CCOCC3)c1)C2 (stereo not drawn) | 793
COc1cc2c(cc1OC)C(=O)C(Oc1cccc(C(C)N3CCCC3)c1)C2 (stereo not drawn) | 138
COc1cc2c(cc1OC)C(=O)C(Oc1cccc(C(C)N3CCOCC3)c1)C2 (stereo not drawn) | 118
O=C(CC1S/C(=N/c2ccc(C3CCCCC3)cc2)NC1=O)Nc1ccc(OC(F)(F)F)cc1 (stereo not drawn) | 897

Structure (SMILES) | Ki [nM]
CC(C)(C)c1ccc(/C(N)=N/OC(=O)c2cnn(-c3ccc([N+](=O)[O-])cc3)c2C(F)(F)F)cc1 | 521
N/C(=N\OC(=O)c1cnn(-c2ccc([N+](=O)[O-])cc2)c1C(F)(F)F)c1ccc(Cl)cc1 | 2350
O=C(Nc1ccc(OC(F)(F)F)cc1)N1CCCN(CCc2ccccc2)CC1 | 241
Cc1c(S(=O)(=O)c2ccc(Cl)cc2)csc1C(=O)NC1CCN(Cc2ccccc2)CC1 | 21.3
O=C(CN1CCN(Cc2ccccc2)CC1)Nc1ccc(C(F)(F)F)cc1Cl | 47.3
O=C(Nc1ccc(OC(F)(F)F)cc1)OC1CN(C(c2ccccc2)c2ccccc2)C1 | 22.8
CSc1cccc(/N=C2\NC(=O)C(CC(=O)Nc3ccc(F)c(F)c3)S2)c1 (stereo not drawn) | 130
O=c1c(Cl)c(N2CCN(c3ccc(C(F)(F)F)cn3)CC2)cnn1-c1c(Cl)cc(C(F)(F)F)cc1Cl | 2870
O=[N+]([O-])c1ccc(OCC(O)CN2CCCN(c3nc4ccc(Cl)cc4s3)CC2)cc1 (stereo not drawn) | 263
CC(CN1CCN(Cc2ccccc2)CC1)N(C(=O)c1cccc([N+](=O)[O-])c1)c1ccccn1 (stereo not drawn) | 61.4
N/C(=N\OC(=O)c1cnn(-c2ccc([N+](=O)[O-])cc2)c1C(F)(F)F)c1ccc(C(F)(F)F)cc1 | 2070
COc1cc2c(cc1OC)C(=O)C(Oc1cccc(CN3CCN(C)CC3)c1)C2 (stereo not drawn) | 62.1
COc1cc2c(cc1OC)C(=O)C(Oc1ccc(CN3CCN(C)CC3)cc1)C2 (stereo not drawn) | 69.5
COc1cc2c(cc1OC)C(=O)C(Oc1ccc(C(C)N3CCOCC3)cc1)C2 (stereo not drawn) | 217
COc1cc2c(cc1OC)C(=O)C(Oc1ccc(C(C)N3CCN(C)CC3)cc1)C2 (stereo not drawn) | 228
COc1cc2c(cc1OC)C(=O)C(Oc1cccc(C(C)N3CCCCC3)c1)C2 (stereo not drawn) | 38.2
COc1cc2c(cc1OC)C(=O)C(Oc1ccc(CN(C)C)cc1)C2 (stereo not drawn) | 209
COc1cc2c(cc1OC)C(=O)/C(=C/c1cccc(CN(C)C)c1)C2 | 62.2
COc1cc2c(cc1OC)C(=O)/C(=C/c1ccc(CN(C)C)cc1)C2 | 617

Structure (SMILES) | Ki [nM]
CCN(C)Cc1cccc(/C=C2\Cc3cc(OC)c(OC)cc3C2=O)c1 | 235
CCN(C)Cc1ccc(/C=C2\Cc3cc(OC)c(OC)cc3C2=O)cc1 | 920
CCN(CC)Cc1ccc(/C=C2\Cc3cc(OC)c(OC)cc3C2=O)cc1 | 453
COc1cc2c(cc1OC)C(=O)/C(=C/c1cccc(CN3CCCC3)c1)C2 | 127
COc1cc2c(cc1OC)C(=O)/C(=C/c1ccc(CN3CCCC3)cc1)C2 | 198
COc1cc2c(cc1OC)C(=O)C(Cc1cccc(CN3CCCCC3)c1)C2 (stereo not drawn) | 59.3
CCN(CC)Cc1cccc(CC2Cc3cc(OC)c(OC)cc3C2=O)c1 (stereo not drawn) | 21.7
CCN(CC)Cc1ccc(CC2Cc3cc(OC)c(OC)cc3C2=O)cc1 (stereo not drawn) | 1040
COc1cc2c(cc1OC)C(=O)C(Cc1cccc(CN3CCCC3)c1)C2 (stereo not drawn) | 22.3
COc1cc2c(cc1OC)C(=O)C(Cc1ccc(CN3CCCC3)cc1)C2 (stereo not drawn) | 773
CCN(C)Cc1ccc(CC2Cc3cc(OC)c(OC)cc3C2=O)cc1 (stereo not drawn) | 918
COc1cc2c(cc1OC)C(=O)C(Cc1cccc(CN(C)C)c1)C2 (stereo not drawn) | 525
COc1cc2c(cc1OC)C(=O)/C(=C/c1cccc(CN3CCCCC3)c1)C2 | 70.9
COc1cc2c(cc1OC)C(=O)/C(=C/c1ccc(CN3CCCCC3)cc1)C2 | 95.2
COc1cc2c(cc1OC)C(=O)C(Cc1ccc(CN3CCCCC3)cc1)C2 (stereo not drawn) | 73.8
CCN(C)Cc1cccc(CC2Cc3cc(OC)c(OC)cc3C2=O)c1 (stereo not drawn) | 507
CCN(CC)Cc1cccc(/C=C2\Cc3cc(OC)c(OC)cc3C2=O)c1 | 237
COc1cc2c(cc1OC)C(=O)C(Oc1cccc(C(C)N(C)C)c1)C2 (stereo not drawn) | 400

molecular target: T1, Acetylcholinesterase (Rattus norvegicus, UniProt P37136)
T1 sequence (P37136 whole entry): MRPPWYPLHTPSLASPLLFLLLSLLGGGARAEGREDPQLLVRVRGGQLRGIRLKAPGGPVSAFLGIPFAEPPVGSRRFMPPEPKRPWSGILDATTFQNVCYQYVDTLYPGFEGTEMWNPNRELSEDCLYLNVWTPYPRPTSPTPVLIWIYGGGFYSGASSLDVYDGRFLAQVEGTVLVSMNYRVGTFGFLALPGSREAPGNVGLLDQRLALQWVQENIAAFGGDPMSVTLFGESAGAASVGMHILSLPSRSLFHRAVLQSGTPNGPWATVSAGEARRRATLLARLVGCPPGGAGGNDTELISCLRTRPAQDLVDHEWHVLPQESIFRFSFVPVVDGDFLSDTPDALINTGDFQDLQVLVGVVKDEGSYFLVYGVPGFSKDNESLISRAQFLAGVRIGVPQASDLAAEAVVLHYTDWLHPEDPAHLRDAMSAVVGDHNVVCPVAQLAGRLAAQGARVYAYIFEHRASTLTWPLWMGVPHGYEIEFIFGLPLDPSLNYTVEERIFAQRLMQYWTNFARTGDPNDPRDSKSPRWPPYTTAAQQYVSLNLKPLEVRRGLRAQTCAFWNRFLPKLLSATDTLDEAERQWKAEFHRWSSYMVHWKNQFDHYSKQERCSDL
Description: Inhibition of acetylcholinesterase in Rattus norvegicus (rat) cortex by Ellman method

Structure (SMILES) | IC50 [nM]
CCN(C)Cc1ccc(/C=C2\Cc3cc(OC)c(OC)cc3C2=O)cc1 | 263
COc1cc2c(cc1OC)C(=O)/C(=C/c1cccc(CN3CCCC3)c1)C2 | 234
COc1cc2c(cc1OC)C(=O)C(Cc1ccc(CN3CCCC3)cc1)C2 (stereo not drawn) | 155
COc1cc2c(cc1OC)C(=O)/C(=C/c1cccc(CN3CCCCC3)c1)C2 | 162
COc1cc2c(cc1OC)C(=O)/C(=C/c1ccc(CN3CCCCC3)cc1)C2 | 102
COc1cc2c(cc1OC)C(=O)C(Cc1ccc(CN3CCCCC3)cc1)C2 (stereo not drawn) | 123
CCN(CC)Cc1cccc(/C=C2\Cc3cc(OC)c(OC)cc3C2=O)c1 | 447
